According to PubChem BioAssay AID1996:
≈ marks a conversion by molar mass, not a printed value.

Details: buffer; pH 7.4; 200.0 µM

solubility kinetic [µg/mL]	Structure (SMILES)
> 42.5	Cc1ccsc1C(=O)N1CC=C(c2ccccc2)CC1
< 0.2	CCOc1ccccc1NC(=O)Nc1ccccn1
2.1 (≈ 6.62 µM)	COc1cccc(CNC(=O)c2ccccc2-c2ccccc2)c1
> 41.5	Cc1nc(=O)c(-c2ccccc2)c(C)n1-c1ccccc1
> 49.3	CC(C)N(Cc1ccccc1)C(=O)COC(=O)c1cc[n+]([O-])cc1
38 (≈ 144 µM)	CC(=O)c1sc(=S)n(Cc2ccccc2)c1C
< 0.3	CCOC(=O)c1sc(NC(=O)CCc2ccccc2)nc1C
8.7 (≈ 27.1 µM)	Cn1c(S(=O)(=O)Cc2ccc(Cl)cc2)nc2ccccc21
1.5 (≈ 4.5 µM)	CC(=O)c1ccccc1NS(=O)(=O)c1cccc2nsnc12
2.1 (≈ 7.44 µM)	Cc1sc(N)nc1-c1ccc(Oc2ccccc2)cc1
> 45.4	O=C(CSc1ccccn1)NCc1ccc2c(c1)OCO2
> 55.1	COc1ccc(NC(=O)CC2C(=O)NCCN2C(=O)c2ccccc2)cc1 (stereo not drawn)
> 43.9	CN(C)CCNc1cnn(-c2ccccc2)c(=O)c1Cl
7.5 (≈ 24.1 µM)	Nc1nc(CCl)nc(N(c2ccccc2)c2ccccc2)n1
2.8 (≈ 8.88 µM)	O=[N+]([O-])c1cccc(Nc2c3ccccc3nc3ccccc23)c1
> 36	Cc1ccc(NC(=O)N(C)c2ccccc2)cc1
15.8 (≈ 58 µM)	CC(=O)Nc1ccc(Nc2ccc([N+](=O)[O-])cn2)cc1
30.7 (≈ 90.9 µM)	CCC(C)NC(=O)c1ccc(CSCc2ccccc2Cl)o1 (stereo not drawn)
34.9 (≈ 133 µM)	Cn1c(-c2ccccc2)cnc1NCc1ccccc1
13 (≈ 44 µM)	CC(C)N(Cc1ccccc1)S(=O)(=O)c1cccs1
> 41.3	N#CCn1c(Cc2ccccc2)nc2ccccc2c1=O

Continued, molecule first:

Structure (SMILES)	solubility kinetic [µg/mL]
O=C(Nc1cccc(S(=O)(=O)NC2=NCCC2)c1)c1ccc(C(F)(F)F)cc1	7.3 (≈ 17.7 µM)
Cc1ccc(S(=O)(=O)N2CCCC(C(=O)NC3CC3)C2)cc1 (stereo not drawn)	46.2 (≈ 143 µM)
COc1ccc(NC(=S)NC(=O)/C=C/c2ccco2)c(OC)c1	< 0.4
O=C(c1cccs1)N1CCN(C23CC4CC(CC(C4)C2)C3)CC1	> 49.6
O=C1CC2(CCN(C(=O)c3ccc(F)c(F)c3)CC2)Oc2ccccc21	> 53.6
COc1ccc(COC(=O)CN2C(=O)NC3(CC(C)CC(C)(C)C3)C2=O)cc1F (stereo not drawn)	5.1 (≈ 12.5 µM)
CCO.C[C@H]1c2cccc(O)c2C(O)=C2C(=O)[C@]3(O)C(O)=C(C(N)=O)C(=O)[C@@H](N(C)C)[C@@H]3[C@@H](O)[C@@H]21.Cl.O	> 76.9
CC(=O)N1C(C)(C)CC(=NOC(=O)c2ccccc2)CC1(C)C	47.1 (≈ 149 µM)
COc1ccc(C(=O)Nc2cc3c4c(c2)C(C)C(=O)N4CCC3)cc1 (stereo not drawn)	38.6 (≈ 115 µM)
Cc1cnc(C(=O)NCc2ccc(Cl)cc2Cl)cn1	7.7 (≈ 26 µM)
CC(C)(C)C(=O)Nc1nnc(SCC(=O)NC2CC2)s1	> 47.2
Cc1ccc2cc(/C=N/NC(=O)CN3CCCCC3)c(Cl)nc2c1	> 51.7
CC(=O)Nc1cccc(OCCCNC(=O)c2ccc(C(C)(C)C)cc2)c1	23.2 (≈ 63 µM)
Cc1nc(SCC(=O)N(C)C2CCS(=O)(=O)C2)c2ccccc2n1 (stereo not drawn)	> 54.8
COc1ccc(NC(=O)[C@@H]2CCCN2S(=O)(=O)c2ccccc2F)cc1S(=O)(=O)N1CCCCC1	37.1 (≈ 70.6 µM)
O=C(COc1cc(F)ccc1[N+](=O)[O-])NCCN1C(=O)CSC1=O	> 53.6
O=C(COc1ccc(Cl)cc1)NCCCNC(=O)c1cnccn1	> 52.3
Cn1ccc(/C=N/N=C2/NC(=O)CS2)n1	> 33.5
CCOc1cc2c(cc1OCC)C(c1ccc(F)cc1)NCC2 (stereo not drawn)	> 47.3

Structure (SMILES)	solubility kinetic [µg/mL]
Cc1sc2nc(SCC(=O)Nc3cccc(S(N)(=O)=O)c3)[nH]c(=O)c2c1C	6 (≈ 14.1 µM)
Cc1cccc(-c2noc(CCCC(=O)NC3CCCC3)n2)c1	42.2 (≈ 135 µM)
Cc1ccc(/C=C/S(=O)(=O)NCCC(=O)NCc2ccccc2F)cc1	9 (≈ 23.9 µM)
CC(C)=CC1C(C(=O)NCCOc2ccccc2)C1(C)C (stereo not drawn)	17.7 (≈ 61.6 µM)
CC(=O)Nc1ccc(C=C(C(C)=O)C(C)=O)cc1	> 36.8
O=C(NCCCO)c1cc2ccccc2[nH]1	> 32.7
O=C(c1cccs1)N1CCN=C1SCc1ccc(Cl)cc1	< 0.4
CCCCCC1CCC(c2ccc(/C(N)=N/O)cc2)CC1 (stereo not drawn)	< 0.3
COCCCNc1ncnc2c1nc1n2CCCC1	> 39.2
N/C(CCS(=O)(=O)c1ccc(Cl)cc1)=N\OC(=O)c1ccccc1Cl	41.6 (≈ 104 µM)
Cc1ccc(/C(N)=N/OC(=O)C(C)c2ccc([N+](=O)[O-])cc2)cc1 (stereo not drawn)	8.3 (≈ 25.4 µM)
CC1(C(=O)OCC(=O)Nc2ccccc2)CC1(Cl)Cl (stereo not drawn)	35 (≈ 116 µM)
O=C(NCCc1ccc(Cl)cc1)c1ccc2c(c1)OCO2	1.2 (≈ 3.95 µM)
CCOC(=O)C1CCCN(CCSc2ccc(C)cc2)C1.Cl (stereo not drawn)	41.3
CCCCCC1CCC(C(=O)N2CCOCC2)CC1 (stereo not drawn)	27.7 (≈ 104 µM)
CN(CC(=O)N1CCCC1)S(=O)(=O)c1ccc2ccccc2c1	> 49.9
CC(=O)Nc1nc(C)c(C(C)C)s1	> 29.7
Cc1nn(CC(=O)NCCCN2CCCC2=O)c(C)c1[N+](=O)[O-]	> 48.5
